The record followed here is ChEMBL document CHEMBL5303304, “EUbOPEN Chemogenomics Library - IncuCyte” (2023).

Common to all, as to format: toxicity, cell-based
The subject of one data set is Fibroblast. The experiment in a line: Incucyte cell viability with human fibroblast. The following applies: 10 µM, compound concentration 10 uM.
A further data set relates to U2OS. The experiment in a line: Incucyte cell viability with U2OS. To be noted: human, 10 µM, compound concentration 10 uM.
For another data set, the system named is HEK-293T. The experiment in a line: Incucyte cell viability with HEK293T. To be noted: human, 10 µM, compound concentration 10 uM.

SMILES strings stand for the structures.
Further: unitless GR value; below 1 slowed growth and below 0 cell loss.

Regarding `CC(C)(O)CNC(=O)N1C(=O)N(c2cccc(C(F)(F)F)c2)C2=C(C(=O)CC2)[C@H]1c1ccc(C#N)cc1`, the “Growth Rate” value in the data set with Fibroblast (0 h, replicate number 2) was 0.22; with Fibroblast (18 h, replicate number 2), 0.82; in the data set with Fibroblast (24 h, replicate number 2), 0.97; with U2OS (0 h, replicate number 1), 0.26; with U2OS (6 h, replicate number 1), 0.67; in the data set on U2OS (12 h, replicate number 1), 0.56. For the same compound, the “Growth Rate” value in the data set with U2OS (12 h, replicate number 2) is reported as 0.96; in the data set on U2OS (18 h, replicate number 1), 0.85; in the data set on U2OS (24 h, replicate number 1) it was 0.86; with HEK-293T (0 h, replicate number 1), -0.47; in the data set with HEK-293T (12 h, replicate number 2) it was 0.98; with HEK-293T (18 h, replicate number 1), 0.94. Also, the “Growth Rate” value with HEK-293T (18 h, replicate number 2) is 1; with HEK-293T (24 h, replicate number 1), 0.94.
Take `CCOc1ccc(S(=O)(=O)Nc2ccc(Cl)cc2C#Cc2cnc(C(=O)[O-])cc2OC)c2ncccc12.[K+]`: the “Growth Rate” value with Fibroblast (0 h, replicate number 1) is on record as -0.78; in the data set with Fibroblast (6 h, replicate number 2), 0.49; with Fibroblast (12 h, replicate number 2) it was 0.49; with Fibroblast (18 h, replicate number 1), 1; in the data set with Fibroblast (18 h, replicate number 2) it was 0.43; in the data set with Fibroblast (24 h, replicate number 1), 0.99. Moreover, the “Growth Rate” value in the data set on Fibroblast (24 h, replicate number 2) is 0.53; with U2OS (0 h, replicate number 1), -0.87; in the data set on U2OS (0 h, replicate number 2), 0.5; with U2OS (6 h, replicate number 2) it was 0.58; with U2OS (12 h, replicate number 1) it was 0.95; in the data set on U2OS (12 h, replicate number 2), -0.91. Also, the “Growth Rate” value in the data set on U2OS (18 h, replicate number 1) is listed as 0.94; in the data set with U2OS (18 h, replicate number 2), -0.85; with U2OS (24 h, replicate number 2) it was 0.81; in the data set on HEK-293T (0 h, replicate number 1), 0.28; in the data set with HEK-293T (0 h, replicate number 2) it was -0.2; with HEK-293T (6 h, replicate number 2) it was 0.66. In addition, the “Growth Rate” value in the data set on HEK-293T (12 h, replicate number 2) stood at 0.97; in the data set with HEK-293T (18 h, replicate number 2) it was 0.87; with HEK-293T (24 h, replicate number 1), 0.98; in the data set with HEK-293T (24 h, replicate number 2) it was 0.87.
On to `Cc1cc(SCc2sc(-c3ccc(C(F)(F)F)cc3)nc2C)ccc1OCC(=O)O` [GW501516], for which the “Growth Rate” value in the data set on Fibroblast (0 h, replicate number 2) amounted to 0.89; in the data set with Fibroblast (6 h, replicate number 2) it was 0.42; in the data set on Fibroblast (12 h, replicate number 1), 0.83; in the data set with Fibroblast (12 h, replicate number 2), 0.31; in the data set with Fibroblast (18 h, replicate number 2) it was 0.73; with Fibroblast (24 h, replicate number 2), 0.83. For the same compound, the “Growth Rate” value is 0.72 with U2OS (0 h, replicate number 2); 0.95 in the data set on U2OS (6 h, replicate number 2); 0.77 in the data set with U2OS (12 h, replicate number 2); 0.92 in the data set on U2OS (18 h, replicate number 2); 0.98 with U2OS (24 h, replicate number 2); -0.84 in the data set on HEK-293T (0 h, replicate number 2). In addition, the “Growth Rate” value was determined as 0.99 with HEK-293T (6 h, replicate number 1); 0.71 in the data set on HEK-293T (6 h, replicate number 2); 0.95 in the data set with HEK-293T (12 h, replicate number 2); 1 with HEK-293T (18 h, replicate number 1); 0.93 with HEK-293T (18 h, replicate number 2); 0.98 with HEK-293T (24 h, replicate number 1). Further, the “Growth Rate” value with HEK-293T (24 h, replicate number 2) was 0.83.
Consider `CC(C)S(=O)(=O)c1ccccc1Nc1nc(N[C@@H]2CCCN(CCCCCCCNC(=O)COc3cccc4c3C(=O)N(C3CCC(=O)NC3=O)C4=O)C2)ncc1Cl` (stereo partly drawn), for which the “Growth Rate” value in the data set on Fibroblast (0 h, replicate number 1) is given as -1; in the data set with Fibroblast (6 h, replicate number 1) it was -0.22; in the data set on Fibroblast (6 h, replicate number 2) it was 0.14; in the data set on Fibroblast (12 h, replicate number 1) it was -0.39; in the data set with Fibroblast (12 h, replicate number 2), -0.49; in the data set with Fibroblast (18 h, replicate number 1) it was -0.33. For the same compound, the “Growth Rate” value in the data set on Fibroblast (18 h, replicate number 2) was -0.45; with Fibroblast (24 h, replicate number 1), -0.23; in the data set with Fibroblast (24 h, replicate number 2), -0.45; in the data set with U2OS (0 h, replicate number 1), -1; with U2OS (6 h, replicate number 1) it was 0.86; in the data set on U2OS (12 h, replicate number 1) it was 0.25. Further, the “Growth Rate” value in the data set on U2OS (12 h, replicate number 2) is 0.57; with U2OS (18 h, replicate number 1), 0.03; in the data set on U2OS (18 h, replicate number 2) it was 0.15; in the data set with U2OS (24 h, replicate number 1), -0.23; with U2OS (24 h, replicate number 2), 0.04; with HEK-293T (0 h, replicate number 1), -1. The “Growth Rate” value in the data set with HEK-293T (6 h, replicate number 1) is -0.44; in the data set on HEK-293T (6 h, replicate number 2), -0.73; with HEK-293T (12 h, replicate number 1), -0.41; in the data set with HEK-293T (12 h, replicate number 2), -0.59; in the data set on HEK-293T (18 h, replicate number 1) it was -0.31; in the data set on HEK-293T (18 h, replicate number 2), -0.49. Further, the “Growth Rate” value in the data set with HEK-293T (24 h, replicate number 1) is listed as -0.24; in the data set with HEK-293T (24 h, replicate number 2), -0.38.
`O=C(Nc1ccc(OC(F)(F)Cl)cc1)c1cnc(N2CC[C@@H](O)C2)c(-c2ccn[nH]2)c1` [ASCIMINIB]: the “Growth Rate” value is on record as -1 with Fibroblast (0 h, replicate number 1); 0.89 in the data set with Fibroblast (0 h, replicate number 2); 0.15 in the data set with Fibroblast (6 h, replicate number 1); -0.75 in the data set with Fibroblast (6 h, replicate number 2); 0.06 in the data set on Fibroblast (12 h, replicate number 1); 0.12 in the data set with Fibroblast (12 h, replicate number 2). Also, the “Growth Rate” value with Fibroblast (18 h, replicate number 1) was 0.17; in the data set with Fibroblast (18 h, replicate number 2), 0.46; in the data set on Fibroblast (24 h, replicate number 1) it was 0.35; in the data set on Fibroblast (24 h, replicate number 2), 0.63; in the data set on U2OS (0 h, replicate number 2), 0.44; in the data set on U2OS (12 h, replicate number 2), 0.61. In addition, the “Growth Rate” value in the data set on U2OS (18 h, replicate number 2) was 0.82; with U2OS (24 h, replicate number 1) it was 0.95; in the data set with HEK-293T (6 h, replicate number 1), -0.71; with HEK-293T (6 h, replicate number 2), -0.37; in the data set on HEK-293T (12 h, replicate number 1), -0.32; in the data set on HEK-293T (12 h, replicate number 2), -0.17. Also, the “Growth Rate” value in the data set with HEK-293T (18 h, replicate number 1) is reported as -0.06; in the data set on HEK-293T (18 h, replicate number 2) it was 0.07; in the data set on HEK-293T (24 h, replicate number 1) it was 0.02; in the data set with HEK-293T (24 h, replicate number 2), 0.19.
As for `COC(=O)Nc1nc2c(s1)-c1c(c(-c3cccnc3)nn1-c1ccc(C3(N(C)C)CC3)cc1)CC2.Cl.Cl`, the “Growth Rate” value is listed as -0.29 in the data set on Fibroblast (0 h, replicate number 1); -1 in the data set with Fibroblast (0 h, replicate number 2); -0.99 in the data set on U2OS (0 h, replicate number 1); 0.96 in the data set on U2OS (12 h, replicate number 2); 0.74 in the data set with U2OS (18 h, replicate number 2); 0.64 with U2OS (24 h, replicate number 2). For the same compound, in the data set on HEK-293T (0 h, replicate number 1), the “Growth Rate” value is -1.
Take `CC1CCN(C(=O)[C@H](CCn2cccc2C#N)NS(=O)(=O)c2cccc3[nH]ccc23)CC1`: the “Growth Rate” value in the data set on Fibroblast (12 h, replicate number 2) was 0.9; with Fibroblast (24 h, replicate number 2), 0.84; in the data set with U2OS (0 h, replicate number 1), 0.73; in the data set with U2OS (0 h, replicate number 2) it was 0.6; in the data set with U2OS (6 h, replicate number 1), 0.98; in the data set with U2OS (12 h, replicate number 1), 0.91. Besides, the “Growth Rate” value is reported as 0.81 in the data set on U2OS (12 h, replicate number 2); 0.99 with U2OS (18 h, replicate number 1); 0.91 with U2OS (18 h, replicate number 2); 0.98 in the data set with U2OS (24 h, replicate number 1); 0.97 with U2OS (24 h, replicate number 2); -0.16 in the data set with HEK-293T (0 h, replicate number 1). Moreover, the “Growth Rate” value was determined as 0.25 in the data set on HEK-293T (0 h, replicate number 2) and 0.92 in the data set with HEK-293T (12 h, replicate number 1).
As to `COc1ccc(OC(=O)N(CC(=O)O)Cc2ccc(OCCc3nc(-c4ccccc4)oc3C)cc2)cc1` [MURAGLITAZAR], the “Growth Rate” value was 0.85 in the data set with Fibroblast (6 h, replicate number 1); 0.43 with Fibroblast (6 h, replicate number 2); 0.76 in the data set on Fibroblast (12 h, replicate number 1); 0.56 in the data set with Fibroblast (12 h, replicate number 2); 0.79 in the data set with Fibroblast (18 h, replicate number 1); 0.72 in the data set with Fibroblast (18 h, replicate number 2). Besides, the “Growth Rate” value in the data set on Fibroblast (24 h, replicate number 2) was 0.97; with U2OS (0 h, replicate number 1), -0.96; in the data set with U2OS (0 h, replicate number 2) it was 0.98; in the data set with U2OS (6 h, replicate number 2), 0.71; in the data set on U2OS (12 h, replicate number 2), 0.94; with U2OS (24 h, replicate number 2), 0.87. In addition, the “Growth Rate” value is -1 in the data set with HEK-293T (0 h, replicate number 2); 0.89 in the data set on HEK-293T (6 h, replicate number 1); 0.07 with HEK-293T (6 h, replicate number 2); 0.94 in the data set with HEK-293T (12 h, replicate number 1); 0.42 in the data set with HEK-293T (12 h, replicate number 2); 0.51 in the data set on HEK-293T (18 h, replicate number 2). Also, in the data set on HEK-293T (24 h, replicate number 2), the “Growth Rate” value worked out at 0.5.
